Reference: US20240067693A1, “POLYPEPTIDES AND USES THEREOF” (MEDIMMUNE LIMITED, priority 2020, published 2024)
Numbered stars: 1 amine (or outer) side, 2 acyl side, 3 side chain; on linkers, the order of the positions; unused ones are H or OH. Bridge positions count the residues as written; N and C are the ends. Square brackets hold non-standard residues; d marks the D form. Side chains are listed from the residue outwards. Peptide text beside a SMILES is read from it. * marks the point of attachment. C18 diacid = O=C(O)CCCCCCCCCCCCCCCCC(=O)*; γGlu = O=C(O)[C@H](CCC(=O)[*:2])N[*:1]; Aib = CC(C)(N)C(=O)O

Assays:
[1] = target: T1, human calcitonin receptor (hCTR) (Homo sapiens, UniProt P30988); experiment: cAMP production in 1321N1 cells with stable recombinant expression of human calcitonin receptor (hCTR); assay type: cell-based; conditions: cAMP, 1321N1 cells, assay buffer with 0.1% BSA; read-out: EC50 (pM) hCTR
T1 construct: expressed in transfected cells
T1 sequence (P30988 25-474): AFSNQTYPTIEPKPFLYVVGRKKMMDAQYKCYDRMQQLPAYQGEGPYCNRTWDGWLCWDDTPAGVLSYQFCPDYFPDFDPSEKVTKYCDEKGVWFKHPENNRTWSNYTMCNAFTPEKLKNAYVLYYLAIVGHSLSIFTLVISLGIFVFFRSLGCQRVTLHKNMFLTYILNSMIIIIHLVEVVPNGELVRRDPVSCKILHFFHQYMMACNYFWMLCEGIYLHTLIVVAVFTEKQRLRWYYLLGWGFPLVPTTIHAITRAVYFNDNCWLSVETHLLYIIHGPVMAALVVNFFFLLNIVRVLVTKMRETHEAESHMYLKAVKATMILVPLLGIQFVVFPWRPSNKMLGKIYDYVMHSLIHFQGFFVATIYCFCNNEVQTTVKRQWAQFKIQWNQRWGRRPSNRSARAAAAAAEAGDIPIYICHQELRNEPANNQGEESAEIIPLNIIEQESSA
Outline: (§1)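 Thawed cells in HBSS/0.1% BSA/25 mM HEPES pH 7.4 with 0.5 mM IBMX were incubated with peptides 30 min at room temperature; cAMP read by HTRF. EC50 from 4-parameter fit of % activation relative to maximal amylin or calcitonin effect.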

[2] = target: T2, human amylin receptor (calcitonin receptor co-expressed with receptor activity modifying protein, RAMP3) (hAMYR3) (Homo sapiens, UniProt O60896+P30988); experiment: cAMP production in 1321N1 cells with stable recombinant expression of human amylin receptor (hAMYR3); assay type: cell-based; conditions: for Ratio (selectivity hAMYR vs hCTR, ratio of EC50 values at the two receptors): EC50 hCTR / EC50 hAMYR3; for EC50: cAMP, 1321N1 cells, assay buffer with 0.1% BSA, read-out: EC50 (pM) hAMYR3
T2 construct: expressed in transfected cells
T2 sequence (P30988 25-474): T1 sequence (P30988 25-474)
T2 sequence (O60896 24-148 partner): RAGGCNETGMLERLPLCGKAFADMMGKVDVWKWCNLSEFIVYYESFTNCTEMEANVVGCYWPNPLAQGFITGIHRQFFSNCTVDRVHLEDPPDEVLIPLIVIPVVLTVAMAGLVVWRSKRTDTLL
Outline: as §1

Structure (SMILES) | EC50 [1] [pM] | Ratio (selectivity hAMYR vs hCTR, ratio of EC50 values at the two receptors) [2] | EC50 [2] [pM]
CC[C@H](C)[C@H](NC(=O)[C@@H]1CCCN1C(=O)CNC(=O)[C@H](Cc1ccccc1)NC(=O)[C@H](CC(N)=O)NC(=O)[C@H](CC(N)=O)NC(=O)[C@H](CO)NC(=O)[C@H](CO)NC(=O)[C@H](Cc1c[nH]cn1)NC(=O)C(C)(C)NC(=O)[C@H](CC(C)C)NC(=O)[C@H](Cc1ccccc1)NC(=O)[C@H](CC(N)=O)NC(=O)[C@H](C)NC(=O)[C@H](CC(C)C)NC(=O)[C@H](CCCNC(=N)N)NC(=O)[C@H](CCC(N)=O)NC(=O)[C@@H](NC(=O)[C@H](C)NC(=O)[C@@H]1CSSC[C@H](NC(=O)[C@@H](N)CCCCNC(=O)CC[C@H](NC(=O)CC[C@H](NC(=O)CCCCCCCCCCCCCCCCC(=O)O)C(=O)O)C(=O)O)C(=O)N[C@@H](CC(N)=O)C(=O)N[C@@H]([C@@H](C)O)C(=O)N[C@@H](C)C(=O)N[C@@H]([C@@H](C)O)C(=O)N1)[C@@H](C)O)C(=O)N[C@@H](CC(C)C)C(=O)N1CCC[C@H]1C(=O)N1CCC[C@H]1C(=O)N[C@H](C(=O)N[C@@H](CC(N)=O)C(=O)N[C@H](C(=O)NCC(=O)N[C@@H](CO)C(=O)N[C@@H](CC(N)=O)C(=O)N[C@H](C(=O)N[C@@H](Cc1ccc(O)cc1)C(N)=O)[C@@H](C)O)C(C)C)[C@@H](C)O [Peptide 127] (H-K([γGlu-γGlu-C18 diacid])CNTATCATQRLANFL[Aib]HSSNNFGPILPPTNVGSNTY-NH2; disulfide 2-7; N-terminus assumed) | 7130 | 19.6 | 364
CC[C@H](C)[C@H](NC(=O)[C@@H]1CCCN1C(=O)CNC(=O)[C@H](Cc1ccccc1)NC(=O)[C@H](CC(N)=O)NC(=O)[C@H](Cc1c[nH]cn1)NC(=O)[C@H](CO)NC(=O)[C@H](CO)NC(=O)[C@H](Cc1c[nH]cn1)NC(=O)C(C)(C)NC(=O)[C@H](CC(C)C)NC(=O)[C@H](Cc1ccccc1)NC(=O)[C@H](CC(N)=O)NC(=O)[C@H](C)NC(=O)[C@H](CC(C)C)NC(=O)[C@H](CCCNC(=N)N)NC(=O)[C@H](CCC(N)=O)NC(=O)[C@@H](NC(=O)[C@H](C)NC(=O)[C@@H]1CSSC[C@H](NC(=O)[C@H](CCCCN)NC(=O)[C@@H](N)CCCCNC(=O)CC[C@H](NC(=O)CCCCCCCCCCCCCCCCC(=O)O)C(=O)O)C(=O)N[C@@H](CC(N)=O)C(=O)N[C@@H]([C@@H](C)O)C(=O)N[C@@H](C)C(=O)N[C@@H]([C@@H](C)O)C(=O)N1)[C@@H](C)O)C(=O)N[C@@H](CC(C)C)C(=O)N1CCC[C@H]1C(=O)N1CCC[C@H]1C(=O)N[C@H](C(=O)N[C@@H](CC(N)=O)C(=O)N[C@H](C(=O)NCC(=O)N[C@@H](CO)C(=O)N[C@@H](CC(N)=O)C(=O)N[C@H](C(=O)N[C@@H](Cc1ccc(O)cc1)C(N)=O)[C@@H](C)O)C(C)C)[C@@H](C)O [Peptide 131] (H-K([γGlu-C18 diacid])KCNTATCATQRLANFL[Aib]HSSHNFGPILPPTNVGSNTY-NH2; disulfide 3-8) | 15100 | 20.5 | 737

These reach a lower EC50 [1]. Values come first.

EC50 [1] [pM] | Ratio (selectivity hAMYR vs hCTR, ratio of EC50 values at the two receptors) [2] | EC50 [2] [pM] | Structure (SMILES)
568 | 4.8 | 118 | CC[C@H](C)[C@H](NC(=O)[C@@H]1CCCN1C(=O)CNC(=O)[C@H](Cc1ccccc1)NC(=O)[C@H](CC(N)=O)NC(=O)[C@H](CC(N)=O)NC(=O)[C@H](CO)NC(=O)[C@H](CO)NC(=O)[C@H](Cc1c[nH]cn1)NC(=O)C(C)(C)NC(=O)[C@H](CC(C)C)NC(=O)[C@H](Cc1ccccc1)NC(=O)[C@H](CCC(=O)O)NC(=O)[C@H](C)NC(=O)[C@H](CC(C)C)NC(=O)[C@H](CCCNC(=N)N)NC(=O)[C@H](CCC(N)=O)NC(=O)[C@@H](NC(=O)[C@H](C)NC(=O)[C@@H]1CSSC[C@H](NC(=O)[C@H](CCCCN)NC(=O)[C@@H](N)CCCCNC(=O)CC[C@H](NC(=O)CCCCCCCCCCCCCCCCC(=O)O)C(=O)O)C(=O)N[C@@H](CC(N)=O)C(=O)N[C@@H]([C@@H](C)O)C(=O)N[C@@H](C)C(=O)N[C@@H]([C@@H](C)O)C(=O)N1)[C@@H](C)O)C(=O)N[C@@H](CC(C)C)C(=O)N1CCC[C@H]1C(=O)N1CCC[C@H]1C(=O)N[C@H](C(=O)N[C@@H](CC(N)=O)C(=O)N[C@H](C(=O)NCC(=O)N[C@@H](CO)C(=O)N[C@@H](CC(N)=O)C(=O)N[C@H](C(=O)N[C@@H](Cc1ccc(O)cc1)C(N)=O)[C@@H](C)O)C(C)C)[C@@H](C)O [Peptide 128] (H-K([γGlu-C18 diacid])KCNTATCATQRLAEFL[Aib]HSSNNFGPILPPTNVGSNTY-NH2; disulfide 3-8; N-terminus assumed)
6690 | 15 | 446 | CC[C@H](C)[C@H](NC(=O)[C@@H]1CCCN1C(=O)CNC(=O)[C@H](Cc1ccccc1)NC(=O)[C@H](CC(N)=O)NC(=O)[C@H](Cc1c[nH]cn1)NC(=O)[C@H](CO)NC(=O)[C@H](CO)NC(=O)[C@H](Cc1c[nH]cn1)NC(=O)C(C)(C)NC(=O)[C@H](CC(C)C)NC(=O)[C@H](Cc1ccccc1)NC(=O)[C@H](CCC(=O)O)NC(=O)[C@H](C)NC(=O)[C@H](CC(C)C)NC(=O)[C@H](CCCNC(=N)N)NC(=O)[C@H](CCC(N)=O)NC(=O)[C@@H](NC(=O)[C@H](C)NC(=O)[C@@H]1CSSC[C@H](NC(=O)[C@H](CCCCN)NC(=O)[C@@H](N)CCCCNC(=O)CC[C@H](NC(=O)CCCCCCCCCCCCCCCCC(=O)O)C(=O)O)C(=O)N[C@@H](CC(N)=O)C(=O)N[C@@H]([C@@H](C)O)C(=O)N[C@@H](C)C(=O)N[C@@H]([C@@H](C)O)C(=O)N1)[C@@H](C)O)C(=O)N[C@@H](CC(C)C)C(=O)N1CCC[C@H]1C(=O)N1CCC[C@H]1C(=O)N[C@H](C(=O)N[C@@H](CC(N)=O)C(=O)N[C@H](C(=O)NCC(=O)N[C@@H](CO)C(=O)N[C@@H](CC(N)=O)C(=O)N[C@H](C(=O)N[C@@H](Cc1ccc(O)cc1)C(N)=O)[C@@H](C)O)C(C)C)[C@@H](C)O [Peptide 130] (H-K([γGlu-C18 diacid])KCNTATCATQRLAEFL[Aib]HSSHNFGPILPPTNVGSNTY-NH2; disulfide 3-8; N-terminus assumed)
3850 | 9.3 | 416 | CC[C@H](C)[C@H](NC(=O)[C@@H]1CCCN1C(=O)CNC(=O)[C@H](Cc1ccccc1)NC(=O)[C@H](CC(N)=O)NC(=O)[C@@H]1CCCN1C(=O)[C@H](CO)NC(=O)[C@H](CO)NC(=O)[C@H](Cc1c[nH]cn1)NC(=O)C(C)(C)NC(=O)[C@H](CC(C)C)NC(=O)[C@H](Cc1ccccc1)NC(=O)[C@H](CC(N)=O)NC(=O)[C@H](C)NC(=O)[C@H](CC(C)C)NC(=O)[C@H](CCCNC(=N)N)NC(=O)[C@H](CCC(N)=O)NC(=O)[C@@H](NC(=O)[C@H](C)NC(=O)[C@@H]1CSSC[C@H](NC(=O)[C@H](CCCCN)NC(=O)[C@@H](N)CCCCNC(=O)CC[C@H](NC(=O)CCCCCCCCCCCCCCCCC(=O)O)C(=O)O)C(=O)N[C@@H](CC(N)=O)C(=O)N[C@@H]([C@@H](C)O)C(=O)N[C@@H](C)C(=O)N[C@@H]([C@@H](C)O)C(=O)N1)[C@@H](C)O)C(=O)N[C@@H](CC(C)C)C(=O)N1CCC[C@H]1C(=O)N1CCC[C@H]1C(=O)N[C@H](C(=O)N[C@@H](CC(N)=O)C(=O)N[C@H](C(=O)NCC(=O)N[C@@H](CO)C(=O)N[C@@H](CC(N)=O)C(=O)N[C@H](C(=O)N[C@@H](Cc1ccc(O)cc1)C(N)=O)[C@@H](C)O)C(C)C)[C@@H](C)O [Peptide 132] (H-K([γGlu-C18 diacid])KCNTATCATQRLANFL[Aib]HSSPNFGPILPPTNVGSNTY-NH2; disulfide 3-8)
2580 | 6.8 | 378 | CC[C@H](C)[C@H](NC(=O)[C@@H]1CCCN1C(=O)CNC(=O)[C@H](Cc1ccccc1)NC(=O)[C@H](CC(N)=O)NC(=O)[C@H](CO)NC(=O)[C@H](CO)NC(=O)[C@H](CO)NC(=O)[C@H](Cc1c[nH]cn1)NC(=O)C(C)(C)NC(=O)[C@H](CC(C)C)NC(=O)[C@H](Cc1ccccc1)NC(=O)[C@H](CC(N)=O)NC(=O)[C@H](C)NC(=O)[C@H](CC(C)C)NC(=O)[C@H](CCCNC(=N)N)NC(=O)[C@H](CCC(N)=O)NC(=O)[C@@H](NC(=O)[C@H](C)NC(=O)[C@@H]1CSSC[C@H](NC(=O)[C@H](CCCCN)NC(=O)[C@@H](N)CCCCNC(=O)CC[C@H](NC(=O)CCCCCCCCCCCCCCCCC(=O)O)C(=O)O)C(=O)N[C@@H](CC(N)=O)C(=O)N[C@@H]([C@@H](C)O)C(=O)N[C@@H](C)C(=O)N[C@@H]([C@@H](C)O)C(=O)N1)[C@@H](C)O)C(=O)N[C@@H](CC(C)C)C(=O)N1CCC[C@H]1C(=O)N1CCC[C@H]1C(=O)N[C@H](C(=O)N[C@@H](CC(N)=O)C(=O)N[C@H](C(=O)NCC(=O)N[C@@H](CO)C(=O)N[C@@H](CC(N)=O)C(=O)N[C@H](C(=O)N[C@@H](Cc1ccc(O)cc1)C(N)=O)[C@@H](C)O)C(C)C)[C@@H](C)O [Peptide 133] (H-K([γGlu-C18 diacid])KCNTATCATQRLANFL[Aib]HSSSNFGPILPPTNVGSNTY-NH2; disulfide 3-8; N-terminus assumed)
